Like-named read-outs stand apart in the source and are kept apart here.
Assays:
A375 = experiment: Apo-BrdU TUNEL apoptosis assay, A375; format: cell-based, human; conditions: 40-μM, 24-hrs
From the text: (§1) To determine if treatment with the therapeutic compound contributes to apoptosis, Cells were detached from culture plates by trypsin treatment, washed twice with PBS, and fixed in 70% ethanol. Fixed cells were washed twice with PBS and treated with RNase A and propidium iodide (PI). PI staining was examined using a Becton-Dickinson FACScan instrument and Cell Quest software. TUNEL assay for apoptosis utilized a Pharmingen APO-BRDU Kit. MTS (3-(4,5-dimethylthiazol-2-yl)-5-(3-carboxymethoxyphenyl)-2-(4-sulfophenyl)-2H-tetrazolium, inner salt) assays were conducted using a CellTiter 96® AQueous One Cell Proliferation Assay Kit (Promega).
(§2) A375, MDA-MB-231 (231), MCF-7 and human foreskin fibroblasts (HFF) cells were treated with 40-μM of the therapeutic compound for 24-hrs and subjected to a FACS based terminal deoxynucleotidyl transferase (TUNEL) assay (Apo-BrdU Kit from BD Pharmingen).

H292 = experiment: Western blots of treated H292 cells; format: cell-based
Experimental: (§3) In order to further examine the mechanism of action of the therapeutic compound four lung cancer cell lines were treated with various concentrations of drug and western blots performed on cell extracts after 24 hr.

MCF-7 = experiment: Apo-BrdU TUNEL apoptosis assay, MCF-7; format: cell-based, human; conditions: 40-μM, 24-hrs
From the text: as §1, §2

E2F complexes = experiment: E2F EMSA on extracts of treated breast cancer cell lines; format: cell-based; conditions: 40 μM
Experimental: Several breast cancer cell lines were treated with 40 μM HLM006474 and extracts subjected to E2F EMSA assay.
(§4) Quantitative EMSA assays were performed in triplicate.

E2F4 [1] = biological target: T1, E2F4 (Homo sapiens, UniProt Q16254); experiment: E2F4 DNA-binding EMSA on whole cell extracts of treated A375 cells; format: cell-based; conditions: for effect on E2F4 DNA-binding activity: 9-hrs
Experimental: Whole cell extracts of treated cells were prepared and the DNA-binding activity of E2F4 measured by EMSA.
PhosphoImager EMSA signals from four independent experiments were quantified using ImageQuant and the results are graphed in FIG. 10B. The apparent IC50 (drug concentration required to reduce total E2F4 DNA-binding activity by 50% of untreated cells was calculated using the Statistical Analysis System (Proc Probit)).
To determine the activity of the therapeutic compound over time, A375 cells were treated with 40-μM of compound and examined at 0-, 3-, 6-, 9-, 12-, 18- and 24-hrs by EMSA and western (FIG. 11A).
as §4
Target sequence in this assay (Q16254 2-413 limits assumed): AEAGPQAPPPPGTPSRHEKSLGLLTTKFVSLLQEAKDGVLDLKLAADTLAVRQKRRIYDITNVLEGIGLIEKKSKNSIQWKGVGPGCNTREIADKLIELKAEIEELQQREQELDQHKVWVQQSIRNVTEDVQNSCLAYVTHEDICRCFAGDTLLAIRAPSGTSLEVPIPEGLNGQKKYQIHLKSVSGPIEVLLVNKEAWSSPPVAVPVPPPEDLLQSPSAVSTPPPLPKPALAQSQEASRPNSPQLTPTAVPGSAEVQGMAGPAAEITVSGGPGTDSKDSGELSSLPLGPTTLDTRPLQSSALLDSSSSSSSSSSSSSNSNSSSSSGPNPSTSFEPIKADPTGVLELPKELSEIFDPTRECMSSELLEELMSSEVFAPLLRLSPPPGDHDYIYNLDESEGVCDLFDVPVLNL
Target sequence in this assay (Q14186 whole entry partner): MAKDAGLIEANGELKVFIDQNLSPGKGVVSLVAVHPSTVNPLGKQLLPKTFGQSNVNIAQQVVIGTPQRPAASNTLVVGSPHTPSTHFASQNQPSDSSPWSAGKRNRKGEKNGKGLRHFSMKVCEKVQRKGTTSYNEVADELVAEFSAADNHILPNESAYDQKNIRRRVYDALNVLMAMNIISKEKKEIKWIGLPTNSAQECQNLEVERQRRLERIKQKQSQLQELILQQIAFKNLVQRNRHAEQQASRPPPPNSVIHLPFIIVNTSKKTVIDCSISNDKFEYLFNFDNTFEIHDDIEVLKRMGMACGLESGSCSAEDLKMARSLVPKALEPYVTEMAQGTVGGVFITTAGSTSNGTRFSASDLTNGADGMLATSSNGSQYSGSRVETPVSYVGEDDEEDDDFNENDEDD

MCF7 cells = experiment: RNase protection assay, MCF7; format: cell-based, human
Experimental: The indicated breast cancer lines were treated with 40 micromolar the therapeutic compound and subjected RNAse protection assay 24 hrs later using the indicated probes.
An RNase protection assay was performed to determine if downregulation of the Rb family members at the level of mRNA could account for the downregulation of the proteins. Two breast cancer cell lines were examined at 0, 3, 6, 9, 18 and 24 hr following the therapeutic compound treatment (FIG. 21).

8226-dox40 = experiment: MTS viability assay, 8226-dox40; format: cell-based; conditions: Homo sapiens
Experimental: (§5) Cells were collected 24 hours post drug exposure and extracts subjected to western blotting using antibodies to the indicated proteins. Cleavage of PARP indicates apoptosis.
(§6) To examine its effect on a range of commonly studied cell lines, the inventors utilized standard MTS assays to quantify cell viability following the therapeutic compound treatment. Cytotoxicity was determined using MTS assays, which were conducted using a CellTiter 96® AQueous One Cell Proliferation Assay Kit (Promega) following the published protocol. Cells in 0.1 ml volume were plated in triplicate into 96-well plates, 1×10^4 cells/well. the therapeutic compound was added and after 24 hours of incubation at 37° C., 20 μl of MTS dye was added to each well. Plates were read at 490 nm following 4 hrs MTS reaction time. The concentration of drug which produced a 50% inhibition of growth (IC50) was calculated from linear regression analysis of the linear portion of the growth curves.

H358 = experiment: Western blots of treated H358 cells; format: cell-based; conditions: H358, 40 micromolar, 24 hrs
Experimental: (§7) The indicated NSCLC lines were treated with 40 micromolar the therapeutic compound and subjected western blotting 24 hrs later using the indicated antibodies.

8226-s = experiment: MTS viability assay, 8226-s; format: cell-based; conditions: Homo sapiens; 8226-s parental
Experimental: as §5, §6

NSCLC lines = experiment: Western blots of cell cycle proteins in NSCLC lines; format: cell-based; conditions: every cell line treated, 40 micromolar, 24 hrs
Experimental: as §7

E2F4 [2] = biological target: T1, E2F4; experiment: Whole-membrane E2F4 western for cleavage products; format: cell-based; parameters: endogenous in cells; conditions: 40 uM
Target sequence in this assay (Q16254 whole entry): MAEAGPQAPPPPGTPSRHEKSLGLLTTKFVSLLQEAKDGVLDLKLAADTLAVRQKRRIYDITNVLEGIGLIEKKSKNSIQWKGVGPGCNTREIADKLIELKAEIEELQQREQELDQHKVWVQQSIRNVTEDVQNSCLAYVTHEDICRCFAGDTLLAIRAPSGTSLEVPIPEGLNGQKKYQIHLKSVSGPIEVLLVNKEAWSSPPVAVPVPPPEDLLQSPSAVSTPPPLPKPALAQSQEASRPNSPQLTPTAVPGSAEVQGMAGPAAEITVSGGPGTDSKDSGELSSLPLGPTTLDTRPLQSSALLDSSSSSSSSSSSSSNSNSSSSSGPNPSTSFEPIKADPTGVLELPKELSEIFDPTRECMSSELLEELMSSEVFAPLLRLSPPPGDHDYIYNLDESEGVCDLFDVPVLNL
Experimental: The indicated cell lines were treated with 40 micromolar the therapeutic compound and subjected to western blotting 24 hrs later. In this case, the entire lanes were subjected to western blot with an E2F4 antibody in order to detect potential immunoreactive truncation products.
For this experiment cells were treated with 40 uM the therapeutic compound and were subjected to western blotting. However, rather than cut the western membrane into three pieces (to probe simultaneously for three proteins of different sizes) the entire membrane was used to reveal smaller immunoreactive bands.

H1299 = experiment: Western blots of treated H1299 cells; format: cell-based
Experimental: as §3

A375 cells = experiment: Propidium iodide flow cytometry, sub-G1 DNA content; format: cell-based, human; conditions: 40-μM
From the text: as §1

E2F4-deficient MEFs = experiment: Apoptosis (ApoBrdU, PARP western) in E2F4-deficient MEFs; format: cell-based, mouse
Experimental: FIG. 12A: MEFS derived from sibling WT and E2F4^−/− mice were treated for 24-hrs with the indicated doses of HLM006474. Apoptosis was determined using ApoBrdU (BD Pharmingen).
FIG. 12B: MEFS derived from sibling WT and E2F4^−/− mice were treated as in A subjected to western blotting using a PARP antibody or E2F4 antibody. PARP cleavage (as indicated by the arrow) is an independent measure of apoptosis.
To determine if the effect of the therapeutic compound is dependent upon E2F4, the inventors compared the therapeutic compound response of immortalized MEFs derived from E2F4-deficient mice with MEFS derived from wildtype siblings.

NCI60 cell lines = experiment: NCI60 drug screen; format: cell-based; conditions: NCI standard concentration
From the text: FIG. 16: HLM006474 was submitted to the National Cancer Institutes Developmental Therapeutic Program NCI60 Drug Screening Program. […] Results are reported as mean growth percent less growth percent.
The therapeutic compound was submitted to the NCI60 drug screen.

A549 = experiment: Western blots of treated A549 cells; format: cell-based
Experimental: as §3

`CCOc1ccc(C(Nc2ccccn2)c2ccc3ccc(C)nc3c2O)cc1C` (stereo not shown) [HLM006474] was tested, and the “apoptosis (TUNEL)” value (A375) was “dramatic induction of apoptosis”, the “Mcl-1 (western)” value (H292; H292, 40-μM) was “downregulation of Mcl-1” and the “sensitivity (downregulation of E2F1 and E2F4, PARP cleavage)” value (H292; H292, various concentrations, 24 hr) was “limited sensitivity”. For the same compound, the “apoptosis (TUNEL)” value (MCF-7) was “did not induce an obvious increase in apoptosis”, the “DNA-binding of all E2F complexes (EMSA)” value (E2F complexes) was “inhibited” and the “effect on E2F4 DNA-binding activity” value (E2F4 [1]; 10 and 20-μM) was “limited effect”. For the same compound, the “reduction of E2F4 activity” value (E2F4 [1]; 40-μM drug, expected from dose response) was 50-75%, the “effect on E2F4 DNA-binding activity” value (E2F4 [1]; 40-μM) was “inhibition is clearly apparent” and the IC50 (E2F4 [1]; A375 cells treated 9-hrs, EMSA, Proc Probit, read-out: IC50 (drug concentration required to reduce total E2F4 DNA-binding activity by 50% of untreated cells)) was 29.8 µM. For the same compound, the IC50 (E2F4 [1]; as restated for the NCI60 screen, read-out: known IC50) was 30 µM, the “time at which inhibition of E2F4 DNA-binding activity became apparent” value (E2F4 [1]; single 40-μM dose) was 9 h and the “Rb at the mRNA level” value (MCF7 cells; MCF7) was “no significant change”. For the same compound, the “p21 mRNA” value (MCF7 cells; MCF7) was “upregulated”, the “mRNA for p107” value (MCF7 cells; MCF7, 0-24 hr) was “repressed” and the IC50 (8226-dox40) was 31 ± 4 µM. The “cyclin A or E2F1 (western)” value (H358) was “no decrease”, the IC50 (8226-s) was 36 ± 6 µM and the “Rb (western)” value (NSCLC lines) was “down (at least modestly)”. For the same compound, the “E2F4 immunoreactive truncation product” value (E2F4 [2]) was “appearance of a 40 kD band”, the “Bcl-2 (western)” value (H1299; H1299, 40-μM) was “significant downregulation” and the “Mcl-1 (western)” value (H1299; H1299, 40-μM) was “no change”. For the same compound, the “sensitivity (downregulation of E2F1 and E2F4, PARP cleavage)” value (H1299; H1299, various concentrations, 24 hr) was “very sensitive”, the “time at which increase in sub-G1 DNA content begins” value (A375 cells) was “approximately 9 hrs” and the “sensitivity of E2F4 knockout MEFs versus cells from littermate animals” value (E2F4-deficient MEFs) was “less sensitive”. The “concentration required to detect PARP cleavage” value (E2F4-deficient MEFs; E2F4-deficient MEFs) was 60 µM, the “growth inhibition in NCI60 cell lines” value (NCI60 cell lines) was “significantly growth inhibited” and the “Mcl-1 (western)” value (A549; A549, 40-μM) was “downregulation of Mcl-1”. For the same compound, the “sensitivity (downregulation of E2F1 and E2F4, PARP cleavage)” value (A549; A549, various concentrations, 24 hr) was “limited sensitivity”.

Source: US8202886B2, “Small molecule E2F inhibitor” (H. Lee Moffitt Cancer Center and Research Institute, Inc., priority 2008, dated 2012)
